A melting point compilation (Tetko et al.; mined from patent text by program, amines drawn as free bases though some values may be those of a salt)

Question: With `N#Cc1cccc2c1COc1ccc(OCc3ccc4cc(F)c(Cl)cc4n3)cc1C2SCCC(=O)O` (stereo not given) as the compound, how does the melting point read?
Answer: 125 to 128 °C

Question: Which melting point does the source give for `CC[C@H](C)[C@H](NC(=O)O[C@@H](CC(C)C)C(=O)OCc1ccccc1)C(=O)NC1CCCCC1` here?
Answer: 98 to 100 °C

Question: For `COc1cccc(Cc2cc3ccccc3s2)c1`, which melting point is on record?
Answer: 74 to 75.5 °C

Question: For `CC(=O)NCC1CN(c2c(F)c(N)c3c(=O)c(C(=O)O)cn(C4CC4)c3c2F)CCO1` (stereo not given), which melting point is on record?
Answer: 228 to 229 °C

Question: With `CN(C)c1ncc(-c2cccnc2)cn1` as the compound, how does the melting point read?
Answer: 295 °C

Question: Which melting point does the source give for `NCC(=O)N1Cc2ccccc2Oc2ccc(Cl)cc21` here?
Answer: 108 to 109 °C

Question: With `O=[N+]([O-])c1ccc(C2CCN(c3ccncc3)CC2)cc1` as the compound, how does the melting point read?
Answer: 173 to 174 °C

Question: Which melting point does the source give for `COC(=O)C=Cc1cc(F)cc(Br)c1` here?
Answer: 95 to 96 °C

Question: For `CC(=O)N1CCN=C1C(O)(c1ccccc1)c1ccccn1` (stereo not given), which melting point is on record?
Answer: 150 to 153 °C

Question: For `COc1ccc(Nc2nc3cc4c(cc3[nH]2)NC(=O)C4(C)C)cc1`, which melting point is on record?
Answer: 286 to 288 °C

Question: Which melting point does the source give for `COc1cc(COc2nn(-c3ccccc3)cc2C=O)ccc1OCc1nc(N2CCCCC2)sc1C` here?
Answer: 180 to 181 °C

Question: For `CN1N=CC=Cc2ccccc21`, which melting point is on record?
Answer: 190 to 192 °C

Question: With `CCCCC(=O)c1c(-c2ccncc2)[nH]c(-c2ccncc2)c1C` as the compound, how does the melting point read?
Answer: 88 to 89 °C

Question: For `CC1(C)C(=O)N(CCO)C(=O)N1CN1C(=O)N(CCO)C(=O)C1(C)C`, which melting point is on record?
Answer: 165 to 166 °C

Question: Which melting point does the source give for `COc1ccc(N=C(CCc2ccccc2Cl)c2ccccc2)cc1` here?
Answer: 83.5 to 84.5 °C

Question: Which melting point does the source give for `COCCOCc1c(CN(C)CC(O)c2cccnc2)sc2c(=O)c(C(=O)NCc3ccc(Cl)cc3)cn(C)c12` (stereo not given) here?
Answer: 129 to 132 °C

Question: For `COc1ccccc1NC(=O)CN1C(=O)c2ccccc2C1=O`, which melting point is on record?
Answer: 211 °C

Question: For `CN(C)C(=O)c1cnn(C)c1C(=O)Nc1ccn2nc(N3CCOCC3)nc2c1`, which melting point is on record?
Answer: 237 to 240 °C

Question: With `COc1cc(Nc2nc3cccc(-c4ccc(C)c(N)c4)c3o2)cc(OC)c1OC` as the compound, how does the melting point read?
Answer: 188 to 190 °C

Question: For `CC(C)Cc1ccc(C(=O)O)c(=O)n1C`, which melting point is on record?
Answer: 118 to 119 °C

Question: With `COc1cc2c(cc1S(N)(=O)=O)CCN(C(C)=O)CC2` as the compound, how does the melting point read?
Answer: 260 to 263 °C

Question: Which melting point does the source give for `Cc1ccc(-c2ccc3c(c2)C=C(C=O)CCO3)cc1` here?
Answer: 132 to 133 °C

Question: With `COc1ccc(-c2ccc(C(C)=O)cc2Cl)c(OC)c1` as the compound, how does the melting point read?
Answer: 115 to 118 °C

Question: For `CC(C)n1nc(-c2sc(N(C)C)nc2-c2ccccc2)ccc1=O`, which melting point is on record?
Answer: 158 to 160 °C

Question: With `Nc1nc2nc(-c3ccccc3)[nH]c2c2ncnn12` as the compound, how does the melting point read?
Answer: > 350 °C

Question: With `CCCOc1ccc(-c2csc(-c3ccccc3)c2CC(=O)N=C(N)N)cc1` as the compound, how does the melting point read?
Answer: 131 to 132 °C

Question: Which melting point does the source give for `O=C(NCc1ccc([N+](=O)[O-])cn1)C(c1ccccc1)c1ccccc1` here?
Answer: 160 to 164 °C

Question: With `COC1=C(OC)C(=O)C(CCCCCCCCCC(=O)N[C@H](CCC(=O)O)C(N)=O)=C(C)C1=O` as the compound, how does the melting point read?
Answer: 136 to 137 °C

Question: With `CN1CCN(c2ccc([N+](=O)[O-])c(C(=O)O)c2)CC1` as the compound, how does the melting point read?
Answer: 212 °C

Question: Which melting point does the source give for `CCCc1c(OCCCOc2c(C(C)=O)ccc(OCC(=O)OCC)c2CCC)ccc(C(C)=O)c1O` here?
Answer: 45 to 46 °C

Question: For `CCN1C(=O)CCCc2c1ccc(Nc1ncc(Cl)c(Nc3ccccc3S(=O)(=O)N(C)C)n1)c2OC`, which melting point is on record?
Answer: 183 °C

Question: With `CCCCc1ccc(C(=O)NCc2cccc3c2C(=O)N(C2CCC(=O)NC2=O)C3=O)nc1` (stereo not given) as the compound, how does the melting point read?
Answer: 137 to 139 °C

Question: Which melting point does the source give for `CC(C)(C)NS(=O)(=O)c1cccc2c1CSC2` here?
Answer: 128 to 132 °C

Question: Which melting point does the source give for `O=C(NCCO)c1cccc(-c2ccc3c(c2)N(Cc2cc(Cl)ccc2Cl)CC3)c1` here?
Answer: 149 to 150 °C

Question: With `Cn1c(C(F)(F)F)cc(=O)n(-c2cc(OC(=O)OCC(Cl)(Cl)Cl)c(Cl)cc2F)c1=O` as the compound, how does the melting point read?
Answer: 140 to 142 °C

Question: For `CCOCc1nc2c(N)nc3cc(OCc4cccc([N+](=O)[O-])c4)ccc3c2n1CC(C)C`, which melting point is on record?
Answer: 162 to 164 °C

Question: With `C/C=C/Cn1nc(C(=O)c2cccc(O)c2)c2ccccc21` as the compound, how does the melting point read?
Answer: 75 to 78 °C

Question: Which melting point does the source give for `COc1ccc(I)cc1CN` here?
Answer: 95 to 97 °C

Question: For `O=C(O)Cn1cc(Cc2nc3c(F)c(F)cc(F)c3s2)c2ccc(Cl)cc21`, which melting point is on record?
Answer: 194 to 195 °C

Question: With `COc1cccc(OC)c1-c1ccc(CC(NC(=O)Nc2ccccc2S(=O)(=O)c2ccccc2)C(=O)O)cc1` (stereo not given) as the compound, how does the melting point read?
Answer: 119 °C

Question: For `CN(CCNc1ccc2ncc(-c3ccccc3)n2n1)C(=O)OC(C)(C)C`, which melting point is on record?
Answer: 150 to 151 °C

Question: Which melting point does the source give for `CN1C(=O)[C@H](NC(=O)c2cc3ccccc3[nH]2)N=C(c2ccccc2)c2ccccc21` here?
Answer: 167 to 177 °C

Question: Which melting point does the source give for `CCCC1(Br)Cc2c(c(C)c(C)c3oc(C(=O)O)cc23)C1=O` (stereo not given) here?
Answer: 233 °C

Question: With `CC(=O)OCC1OC(n2cnc3c(O)nc(Nc4ccccc4)nc32)C(OC(C)=O)C1OC(C)=O` (stereo not given) as the compound, how does the melting point read?
Answer: 234 to 235 °C

Question: Which melting point does the source give for `Cc1ccc(N2CCN(Cc3n[nH]c4ccccc34)CC2)cc1` here?
Answer: 176 to 177 °C

Question: With `Cc1onc(-c2ccccc2)c1C(=O)NCCCN1CCN(c2cc(F)ccc2OCC(F)(F)F)CC1` as the compound, how does the melting point read?
Answer: 123 to 125 °C

Question: Which melting point does the source give for `CN1OC(C=Cc2ccccc2)CC1(Cn1ccnc1)c1ccc2ccccc2c1` (stereo not given) here?
Answer: 166 to 169 °C

Question: For `Oc1ccc(Oc2cccc(F)c2)cc1`, which melting point is on record?
Answer: 53 to 55 °C

Question: Which melting point does the source give for `CCOC(=O)C1=CN(CC)c2cc(C#N)c(F)cc2C1` here?
Answer: 205 to 207 °C

Question: For `CC(C)n1cc(-c2ccc(F)cc2)c(-c2ccc(F)cc2)c1C(=O)O`, which melting point is on record?
Answer: 212 °C
